Test system: theta power
Experiment: EEG study on theta power modulation by THC and Lion's Mane extract (randomized, double-blind, crossover)
Format: in vivo, human
Settings: for global theta power change: 16-node EEG, normalized theta power
Experimental: Participants: 10 healthy adults (18-45 years) in a randomized, double-blind, crossover trial.
Treatments: Baseline (placebo), Lion's Mane (2.2 g), THC (5 mg), THC+Lion's Mane.
Administration: Nanoemulsion beverages for rapid absorption.
EEG recordings: 16-node headset measured theta power at 0 min (baseline), 15 min, and 30 min.
Normalized theta power analyzed via mixed-effects ANOVA.
Topographic mapping for spatial changes.

## CCCCCc1cc(O)c2c(c1)OC(C)(C)[C@@H]1CCC(C)=C[C@@H]21 [THC, Δ9-tetrahydrocannabinol]
15 min after nanoemulsion beverage
  global theta power change: −8.9%
15 minutes
  theta power change, frontal nodes F3, F7 and FC5: −14.6%
30 min after nanoemulsion beverage
  global theta power change: 19.4%
30 minutes
  theta power change, frontal nodes: 33.2%
Nodes P3, P4, O1, O2
  theta power change, parietal (P3, P4) and occipital (O1, O2) nodes: 4-8%

Source: patent US20250325610A1, “Compositions Containing Cannabis and Hericium Extracts for the Improvement of Mental Health and Treatment of CNS Disorders” (DrinkBrez, LLC, priority 2024, published 2025)
